Laboratory results published in patent US11746085B2, “Triphenylsulfonium salt compound, and uses thereof” (Changzhou Tronly Advanced Electronic Materials Co., Ltd., priority 2018, dated 2023).

test: Dissolution performance test: solubility in 3-ethyl-3-hydroxymethyl oxetane monomer; type: physicochemical; settings: Table 3; maximum number of grams dissolved in 100 g 3-ethyl-3-hydroxymethyl oxetane monomer at 20° C.
Description: The solubility in 3-ethyl-3-hydroxymethyl oxetane monomer was tested for Compound A-1 to A-38 and C-1 to C-25, and comparative compounds B-1 and B-2 as well as D-1 and D-2 in the present invention, calculated based on the maximum number of grams dissolved in 100 g solvent at 20° C.

Solubility [g]	Structure (SMILES)
19.2	Cc1ccc([S+](c2ccccc2)c2ccccc2)cc1C(F)(F)F [Compound A-6]
27.8	Cc1ccc([SH](c2ccc(Sc3ccc(C(=O)c4ccccc4)cc3)cc2)c2ccc(C)c(F)c2)cc1F [Compound A-30]
23.8	Cc1ccc([SH](c2ccc(C)c(F)c2)c2ccc(C)c(F)c2)cc1F [Compound A-10]
23.5	Cc1ccc(-[s+]2c3ccccc3c(=O)c3cc(C(C)C)ccc32)cc1F (stereo not shown) [Compound A-2]
24.3	Cc1ccc([S+](c2ccc(Sc3ccccc3)cc2)c2ccc(C)c(C(=O)Cl)c2)cc1C(=O)Cl [Compound A-19]
23.4	Cc1ccc([S+](c2ccc(-c3ccccc3)cc2)c2ccc(C)c(F)c2)cc1F [Compound A-15]
23.8	Cc1ccc([S+](c2ccc(Oc3ccccc3)cc2)c2ccc(C)c(F)c2)cc1F [Compound A-13]
23.4	COc1ccc([S+](c2ccc(C(C)=O)cc2)c2ccc(C(C)=O)cc2)cc1F [Compound A-8]
21.6	Cc1ccc([S+](c2ccc(C)c(F)c2)c2ccc(C)c(F)c2)cc1 [Compound A-11]
23.5	Cc1ccc([S+](c2ccc(Cc3ccccc3)cc2)c2ccc(C)c(F)c2)cc1F [Compound A-14]
23.2	Cc1ccc([S+](c2ccc(C)c(C#N)c2)c2ccc(C)c(C#N)c2)cc1C [Compound A-18]
27.6	CCc1ccc([S+](c2ccc(OC)cc2)c2ccc(CC)c(C(F)(F)F)c2)cc1C(F)(F)F [Compound A-31]
24.3	Cc1ccc([S+](c2ccc(OCCO)cc2)c2ccc(C)c(F)c2)cc1F [Compound A-9]
19.8	Fc1ccc([S+](c2ccccc2)c2ccc(Sc3ccccc3)cc2)cc1F (stereo not shown) [Compound A-20]
23.2	Fc1cc([S+](c2ccc(Sc3ccccc3)cc2)c2ccc(Cc3ccccc3)c(F)c2)ccc1Cc1ccccc1 [Compound A-36]
22.6	CC(=O)c1cc([SH](c2ccc(Sc3ccccc3)cc2)c2ccc(C)c(C(C)=O)c2)ccc1C [Compound A-16]

Solubility [g]	Structure (SMILES)
23.5	Cc1ccc([S+](c2ccccc2)c2ccc(/C=C/c3ccccc3)cc2)cc1F (stereo not shown) [Compound A-38]
20.6	Cc1ccc([S+](c2ccccc2)c2ccccc2)cc1 [Compound B-2, reference compound]
23.1	Cc1ccc([S+](c2ccc(C)c(F)c2)c2ccc3oc4ccccc4c3c2)cc1F [Compound A-24]
25.7	COc1ccc([S+](c2ccc(C)c(F)c2)c2ccc(C)c(F)c2)cc1 [Compound A-1]
24.8	COc1ccc([S+](c2ccc(Sc3ccccc3)cc2)c2ccc(OC)c(F)c2)cc1F [Compound A-35]
22.3	Cc1ccc([S+](c2ccc(C)c(F)c2)c2ccc3c(c2)Cc2ccccc2-3)cc1F [Compound A-22]
12.1	Fc1cccc([S+](c2ccccc2)c2ccccc2)c1 [Compound B-1, reference compound]
20.1	Cc1ccc([S+](c2ccccc2)c2ccc(-c3ccccc3)cc2)cc1F (stereo not shown) [Compound A-21]
26.4	CCc1ccc([S+](c2ccc(OC)cc2)c2ccc(CC)c(F)c2)cc1F [Compound A-28]
22.4	Cc1ccc([S+](c2ccc(/C=C/c3ccccc3)cc2)c2ccc(C)c(F)c2)cc1F [Compound A-37]
20.6	CC(=O)c1ccc([S+](c2ccccc2)c2ccc(C)c(C#N)c2)cc1 (stereo not shown) [Compound A-7]
19.5	Cc1ccc([S+](c2ccccc2)c2ccccc2)cc1F [Compound A-4]
22.5	Cc1ccc([S+](c2ccc(C)c(F)c2)c2ccc(C)c(F)c2)cc1 [Compound A-3]
24.5	Cc1ccc([S+](c2ccc(Sc3ccccc3)cc2)c2ccc(C)c(F)c2)cc1F [Compound A-12]
19.1	Fc1ccc([S+](c2ccccc2)c2ccccc2)cc1F [Compound A-5]

Structure (SMILES)	Solubility [g]
CCc1ccc([S+](c2ccc(OCCO)cc2)c2ccc(CC)c([N+](=O)[O-])c2)cc1[N+](=O)[O-] [Compound A-32]	28.2
Cc1ccc([S+](c2ccc(Sc3ccccc3)cc2)c2ccc(C)c([N+](=O)[O-])c2)cc1[N+](=O)[O-] [Compound A-27]	22.3

same assay, conditions: Table 4; maximum number of grams dissolved in 100 g 3-ethyl-3-hydroxymethyl oxetane monomer at 20° C.

Solubility [g]	Structure (SMILES)
24.3	Cc1ccc([S+](c2ccc(Sc3ccc([S+](c4ccc(C)c(C(F)(F)F)c4)c4ccc(C)c(C(F)(F)F)c4)cc3)cc2)c2ccc(C)c(C(F)(F)F)c2)cc1C(F)(F)F [Compound C-2]
24.9	Cc1ccc([S+](c2ccc(Sc3ccc([S+](c4ccc(C)c(C#N)c4)c4ccc(C)c(C#N)c4)cc3C)c(C)c2)c2ccc(C)c(C#N)c2)cc1C#N [Compound C-13]
21.5	Cc1ccc([S+](c2ccccc2)c2ccc(Sc3ccc([S+](c4ccccc4)c4ccc(C)c(F)c4)cc3)cc2)cc1F (stereo not shown) [Compound C-17]
22.1	Cc1ccc([S+](c2ccccc2)c2ccc(Sc3ccc([S+](c4ccccc4)c4ccc(C)c(C(F)(F)F)c4)cc3)cc2)cc1C(F)(F)F (stereo not shown) [Compound C-20]
19.3	Cc1ccc([S+](c2ccccc2)c2ccc(Sc3ccc([S+](c4ccccc4)c4ccc(C)cc4)cc3)cc2)cc1 [Compound D-2, reference compound]
23.1	Cc1ccc([S+](c2ccc(Sc3ccc([S+](c4ccc(C)c(C#N)c4)c4ccc(C)c(C#N)c4)cc3)cc2)c2ccc(C)c(C#N)c2)cc1C#N [Compound C-4]
24.8	CC(C)c1ccc([S+](c2ccc(-c3ccc([S+](c4ccc(C(C)C)c(F)c4)c4ccc(C(C)C)c(F)c4)cc3)cc2)c2ccc(C(C)C)c(F)c2)cc1F [Compound C-19]
21.0	Cc1ccc([S+](c2ccc(-c3ccc([S+](c4ccc(C)c(C#N)c4)c4ccc(C)c(C#N)c4)cc3)cc2)c2ccc(C)c(C#N)c2)cc1C#N [Compound C-11]
23.7	Cc1ccc([S+](c2ccc(Oc3ccc([S+](c4ccc(C)c(F)c4)c4ccc(C)c(F)c4)cc3)cc2)c2ccc(C)c(F)c2)cc1F [Compound C-8]
25.1	CCc1ccc([S+](c2ccc(Sc3ccc([S+](c4ccc(CC)c(F)c4)c4ccc(CC)c(F)c4)cc3)cc2)c2ccc(CC)c(F)c2)cc1F [Compound C-5]
25.3	CCc1ccc([S+](c2ccc(Sc3ccc([S+](c4ccc(CC)c(C(F)(F)F)c4)c4ccc(CC)c(C(F)(F)F)c4)cc3)cc2)c2ccc(CC)c(C(F)(F)F)c2)cc1C(F)(F)F [Compound C-6]
24.4	Cc1ccc([S+](c2ccc(Sc3ccc([S+](c4ccc(C)c(F)c4)c4ccc(C)c(F)c4)cc3)cc2)c2ccc(C)c(F)c2)cc1F [Compound C-1]
23.5	Cc1ccc([S+](c2ccc(C)c(F)c2)c2ccc3c(c2)sc2cc([S+](c4ccc(C)c(F)c4)c4ccc(C)c(F)c4)ccc23)cc1F [Compound C-24]
25.3	Cc1ccc([S+](c2ccc(Sc3ccc([S+](c4ccc(C)c(F)c4)c4ccc(C)c(F)c4)cc3C)c(C)c2)c2ccc(C)c(F)c2)cc1F [Compound C-12]
24.4	Fc1cc([S+](c2ccc(Sc3ccc([S+](c4ccc(Cc5ccccc5)c(F)c4)c4ccc(Cc5ccccc5)c(F)c4)cc3)cc2)c2ccc(Cc3ccccc3)c(F)c2)ccc1Cc1ccccc1 [Compound C-16]
11.5	Fc1cccc([S+](c2ccccc2)c2ccc(Sc3ccc([S+](c4ccccc4)c4cccc(F)c4)cc3)cc2)c1 [Compound D-1, reference compound]
20.7	COc1ccc([S+](c2ccccc2)c2ccc(Sc3ccc([S+](c4ccccc4)c4ccc(OC)c(F)c4)cc3)cc2)cc1F (stereo not shown) [Compound C-18]
23.4	Cc1ccc([S+](c2ccc(C)c(F)c2)c2ccc3c(c2)Cc2cc([S+](c4ccc(C)c(F)c4)c4ccc(C)c(F)c4)ccc2-3)cc1F [Compound C-21]
22.8	CCn1c2cc([SH](c3ccc(C)c(C(F)(F)F)c3)c3ccc(C)c(C(F)(F)F)c3)ccc2c2ccc([SH](c3ccc(C)c(C(F)(F)F)c3)c3ccc(C)c(C(F)(F)F)c3)cc21 [Compound C-25]
21.4	Cc1ccc([S+](c2ccc(-c3ccc([S+](c4ccc(C)c(F)c4)c4ccc(C)c(F)c4)cc3)cc2)c2ccc(C)c(F)c2)cc1F [Compound C-10]
24.5	CCCCC1(CCCC)c2cc([S+](c3ccc(C)c(F)c3)c3ccc(C)c(F)c3)ccc2-c2ccc([S+](c3ccc(C)c(F)c3)c3ccc(C)c(F)c3)cc21 [Compound C-22]
23.6	Cc1ccc([SH](c2ccc(C)c(F)c2)c2ccc3c(c2)oc2cc([SH](c4ccc(C)c(F)c4)c4ccc(C)c(F)c4)ccc23)cc1F [Compound C-23]
22.4	Cc1ccc([S+](c2ccc(/C=C/c3ccc([S+](c4ccc(C)c(F)c4)c4ccc(C)c(F)c4)cc3)cc2)c2ccc(C)c(F)c2)cc1F [Compound C-7]

Structure (SMILES)	Solubility [g]
Cc1ccc([S+](c2ccc(Cc3ccc([S+](c4ccc(C)c([N+](=O)[O-])c4)c4ccc(C)c([N+](=O)[O-])c4)cc3)cc2)c2ccc(C)c([N+](=O)[O-])c2)cc1[N+](=O)[O-] [Compound C-9]	23.1
Cc1ccc([S+](c2ccc(Sc3ccc([S+](c4ccc(C)c([N+](=O)[O-])c4)c4ccc(C)c([N+](=O)[O-])c4)cc3)cc2)c2ccc(C)c([N+](=O)[O-])c2)cc1[N+](=O)[O-] [Compound C-3]	23.4
